Patent publication US11002524B2, “Cyclic compounds and process for the preparation thereof” (Council of Scientific & Industrial Research, priority 2016, dated 2021)
Values after ≈ are worked out from the molar mass of the structure shown. Like-named read-outs stand apart in the source and are kept apart here.

Test system: Salmonella enterica strain AMC (ATCC #6539)
Assay: Antibacterial MIC assay (Promega BacTiter-Glo microbial cell viability assay)
Type: cell-based
Procedure: (§1) The minimum inhibitory concentrations (MICs) are determined using the Promega Bac Titer-Glo microbial cell viability assay, which measures cell viability by quantitation of ATP present, an indicator of metabolic activity of cells. The assays are carried out using Salmonella enterica strain AMC (ATCC #6539), Inocula of S. enterica are prepared from 12-h broth cultures grown in Mueller Hinton broth and the suspensions were then adjusted to a turbidity of 0.5 McFarland. […] Bacterial cells are treated with hunanamycin analogs for 24 hours at ranges from 0.4 to 40 μg/mL and ciprofloxacin as a control ranging from 0.03 to 10 μg/mL. The OD600 is measured using an Envision multi-modal plate reader (Perkin-Elmer, Inc.).
as §1, with “(MICs) were” for “(MICs) are”, “assays were” for “assays are”, “enterica were” for “enterica are”, “cells were” for “cells are”, “OD600 was” for “OD600 is”, “Inc.). The antibiotic assays were performed in Prof. John B. MacMillan's lab, Department of Biochemistry, University of Texas Southwestern Medical Center at Dallas, USA.” for “Inc.).”

[1] = S. enterica AMC ATCC #6539, 24 hours treatment, 0.4 to 40 μg/mL, Mueller Hinton broth, Table 1 in Example 9
[2] = Salmonella enterica, ATCC6539, S. enterica AMC ATCC #6539, 24 hours treatment, 0.4 to 40 μg/mL, Mueller Hinton broth, Table 1 in description, read-out: MIC

SMILES	MIC [1] [µg/mL]	MIC [2] [µg/mL]	MIC (Salmonella enterica, ATCC6539, 24 h) [µg/mL]
Cc1cc2[nH]c(=O)c(=O)n(C[C@H](O)[C@H](O)[C@H](O)CO)c2cc1C [Compound 2, 6,7-dimethyl-1-((2S,3S,4R)-2,3,4,5-tetrahydroxypentyl)-1,4-dihydroquinoxaline-2,3-dione]	>32	> 32	
CCOC(=O)Cn1c(=O)c(=O)n(C[C@H](O)[C@H](O)[C@H](O)CO)c2cc(C)c(C)cc21 [Compound 7, ethyl 2-(6,7-dimethyl-2,3-dioxo-4-((2S,3S,4R)-2,3,4,5-tetrahydroxypentyl)-3,4-dihydroquinoxalin-1(2H)-yl)acetate]	16 (≈ 39 µM)	16 (≈ 39 µM)	
CC(C)=CCn1c(=O)c(=O)n(C[C@H](O)[C@H](O)[C@H](O)CO)c2cc(C)c(C)cc21 [Compound 3, 6,7-dimethyl-1-(3-methylbut-2-en-1-yl)-4-((2S,3S,4R)-2,3,4,5-tetrahydroxypentyl)-1,4-dihydroquinoxaline-2,3-dione]	16 (≈ 40.8 µM)	16 (≈ 40.8 µM)	
Cc1cc2c3c(c1C)C(C)(C)CCn3c(=O)c(=O)n2C[C@H](O)[C@H](O)[C@H](O)CO [Huanamycin A, 7,7,8,9-tetramethyl-1-((2S,3S,4R)-2,3,4,5-tetrahydroxypentyl)-6,7-dihydro-1H,5H-4l4,41l5-4,41-methanopyrido[3,2,1-ij]quinoxaline-2,3-dione, reference compound]	8 (≈ 20.4 µM)		8 (≈ 20.4 µM)
Cc1cc2c(cc1C)n(C[C@H](O)[C@H](O)[C@H](O)CO)c(=O)c(=O)n2CC=C1CCCCC1 [Compound 6, 1-(2-cyclohexylideneethyl)-6,7-dimethyl-4-((2S,3S,4R)-2,3,4,5-tetrahydroxypentyl)-1,4-dihydroquinoxaline-2,3-dione]	>32	> 32	
CCn1c(=O)c(=O)n(C[C@H](O)[C@H](O)[C@H](O)CO)c2cc(C)c(C)cc21 [Compound 5, 1-ethyl-6,7-dimethyl-4-((2S,3S,4R)-2,3,4,5-tetrahydroxypentyl)-1,4-dihydroquinoxaline-2,3-dione]	>32	> 32	
Cc1cc2c(cc1C)n(C[C@H](O)[C@H](O)[C@H](O)CO)c(=O)c(=O)n2CCC1CCCCC1 [Compound 10, 1-(2-cyclohexylethyl)-6,7-dimethyl-4-((2S,3S,4R)-2,3,4,5-tetrahydroxypentyl)-1,4-dihydroquinoxaline-2,3-dione]	8 (≈ 18.4 µM)	8 (≈ 18.4 µM)	
C=CCn1c(=O)c(=O)n(C[C@H](O)[C@H](O)[C@H](O)CO)c2cc(C)c(C)cc21 [Compound 4, 1-allyl-6,7-dimethyl-4-((2S,3S,4R)-2,3,4,5-tetrahydroxypentyl)-1,4-dihydroquinoxaline-2,3-dione]	16 (≈ 43.9 µM)	16 (≈ 43.9 µM)	
Cc1cc2c(cc1C)n(C[C@H](O)[C@H](O)[C@H](O)CO)c(=O)c(=O)n2Cc1ccccc1 [Compound 8, 1-benzyl-6,7-dimethyl-4-((2S,3S,4R)-2,3,4,5-tetrahydroxypentyl)-1,4-dihydroquinoxaline-2,3-dione]	>32	> 32	
